Consider 11 molecules from BindingDB's records for doi:10.1021/jm950639r (Eli Lilly, 1996).

What all share (assay): HIV-1 RT Assay
In assay [1] the target is T1, Gag-Pol polyprotein [588-1027]/[588-1147] (Human immunodeficiency virus 1, UniProt P04585).
T1 construct: 588-1027; 588-1147

In assay [2] the target is T2, Gag-Pol polyprotein [588-1127,L687I]/[588-1147,L687I] (Human immunodeficiency virus 1, UniProt P04585, L687I).
T2 construct: 588-1127; 588-1147

Assay [3] addresses T3, Gag-Pol polyprotein [588-1127,Y768C]/[588-1147,Y768C] (Human immunodeficiency virus 1, UniProt P04585, Y768C).
T3 construct: 588-1127; 588-1147

A word on the IC50: it is the point on the concentration scale where inhibition reaches its midpoint. Low values mean higher potency, high ones lower potency. For `S=C(NCCc1nc2ccccc2[nH]1)Nc1ccc(Br)cn1` [N-[2-(2-Benzimidazolyl)ethyl]-N-[2-(5-bromopyridyl)]-thiourea], the IC50 in assay [1] is 21 nM; in assay [2], above 2500 nM; in assay [3] it was 1860 nM.
With `CNC(=O)c1ccc(F)c(CC/N=C(\S)Nc2ccc(Br)cn2)c1F` [3-(2-{[(5-bromopyridin-2-yl)carbamothioyl]amino}ethyl)-2,4-difluoro-N-methylbenzamide], the IC50 was above 2000 nM in assay [2] (pH 7.8, 37 °C) and above 2000 nM in assay [3] (pH 7.8, 37 °C).
In turn, `S=C(NCCn1nc2ccccc2n1)Nc1ccc(Br)cn1` [3-[2-(2H-1,2,3-benzotriazol-2-yl)ethyl]-1-(5-bromopyridin-2-yl)thiourea] displayed an IC50 in assay [3] of 100 nM.
`S=C(NCCc1c[nH]c2ccccc12)Nc1ccc(Br)cn1` [1-(5-bromopyridin-2-yl)-3-[2-(1H-indol-3-yl)ethyl]thiourea] registered an IC50 in assay [2] above 2500 nM.
Take `CCOc1ccc(F)c(CCNC(=S)Nc2ncc(C(F)(F)F)s2)c1Cl` [1-[2-(2-chloro-3-ethoxy-6-fluorophenyl)ethyl]-3-[5-(trifluoromethyl)-1,3-thiazol-2-yl]thiourea]: the IC50 in assay [1] is 47 nM; in assay [2], 7000 nM; in assay [3], 7000 nM.
`CC(=O)NCc1ccc(F)c(CCNC(=S)Nc2ccc(Br)cn2)c1F` [N-[2-(3-(Acetamidomethyl)-2,6-difluorophenethyl)]-N-[2-(5-bromopyridyl)]thiourea]: the IC50 in assay [2] (pH 7.8, 37 °C) was above 2000 nM; in assay [3] (pH 7.8, 37 °C), above 2000 nM.
Consider `CC(C)=CCN1Cc2cc(Cl)cc3[nH]c(=S)n(c23)C[C@@H]1C` [(11S)-6-chloro-11-methyl-10-(3-methylbut-2-en-1-yl)-1,3,10-triazatricyclo[6.4.1.0^{4,13}]trideca-4,6,8(13)-triene-2-thione], for which the IC50 was 32200 nM in assay [2] and 13000 nM in assay [3].
`COCc1ccc(F)c(CCNC(=S)Nc2ccc(Br)cn2)c1F` [1-(5-bromopyridin-2-yl)-3-{2-[2,6-difluoro-3-(methoxymethyl)phenyl]ethyl}thiourea] yielded an IC50 in assay [3] (pH 7.8, 37 °C) of 100 nM.
The molecule `COc1ccc2[nH]cc(CC/N=C(\S)Nc3ccc(Br)cn3)c2c1` [1-(5-bromopyridin-2-yl)-3-[2-(5-methoxy-1H-indol-3-yl)ethyl]thiourea] registered an IC50 in assay [2] above 2500 nM.
As for `Cc1cc2nn(CCNC(=S)Nc3ccc(Br)cn3)nc2cc1C` [1-(5-bromopyridin-2-yl)-3-[2-(5,6-dimethyl-2H-1,2,3-benzotriazol-2-yl)ethyl]thiourea], the IC50 in assay [2] was above 2500 nM; in assay [3], 100 nM.
In assay [1], `CCOc1ccc(OCC)c(CCNC(=S)Nc2ccc(Br)cn2)c1` [1-(5-bromopyridin-2-yl)-3-[2-(2,5-diethoxyphenyl)ethyl]thiourea] yielded an IC50 of 18 nM.
